Experimental data as given in patent publication US9708325B2, “Sulfonimidoylpurinone compounds and derivatives for the treatment and prophylaxis of virus infection” (Hoffmann-La Roche Inc., priority 2015, dated 2017).
Values after ≈ are worked out from the molar mass of the structure shown. Like-named read-outs stand apart in the source and are kept apart here.

Assays:
human TLR7 = human TLR7 (Homo sapiens (Human), UniProt Q9NYK1); assay: HEK-Blue-hTLR7 cells assay (SEAP reporter); assay type: cell-based; conditions: 20 hrs
Sequence of human TLR7 (Q9NYK1 27-1049): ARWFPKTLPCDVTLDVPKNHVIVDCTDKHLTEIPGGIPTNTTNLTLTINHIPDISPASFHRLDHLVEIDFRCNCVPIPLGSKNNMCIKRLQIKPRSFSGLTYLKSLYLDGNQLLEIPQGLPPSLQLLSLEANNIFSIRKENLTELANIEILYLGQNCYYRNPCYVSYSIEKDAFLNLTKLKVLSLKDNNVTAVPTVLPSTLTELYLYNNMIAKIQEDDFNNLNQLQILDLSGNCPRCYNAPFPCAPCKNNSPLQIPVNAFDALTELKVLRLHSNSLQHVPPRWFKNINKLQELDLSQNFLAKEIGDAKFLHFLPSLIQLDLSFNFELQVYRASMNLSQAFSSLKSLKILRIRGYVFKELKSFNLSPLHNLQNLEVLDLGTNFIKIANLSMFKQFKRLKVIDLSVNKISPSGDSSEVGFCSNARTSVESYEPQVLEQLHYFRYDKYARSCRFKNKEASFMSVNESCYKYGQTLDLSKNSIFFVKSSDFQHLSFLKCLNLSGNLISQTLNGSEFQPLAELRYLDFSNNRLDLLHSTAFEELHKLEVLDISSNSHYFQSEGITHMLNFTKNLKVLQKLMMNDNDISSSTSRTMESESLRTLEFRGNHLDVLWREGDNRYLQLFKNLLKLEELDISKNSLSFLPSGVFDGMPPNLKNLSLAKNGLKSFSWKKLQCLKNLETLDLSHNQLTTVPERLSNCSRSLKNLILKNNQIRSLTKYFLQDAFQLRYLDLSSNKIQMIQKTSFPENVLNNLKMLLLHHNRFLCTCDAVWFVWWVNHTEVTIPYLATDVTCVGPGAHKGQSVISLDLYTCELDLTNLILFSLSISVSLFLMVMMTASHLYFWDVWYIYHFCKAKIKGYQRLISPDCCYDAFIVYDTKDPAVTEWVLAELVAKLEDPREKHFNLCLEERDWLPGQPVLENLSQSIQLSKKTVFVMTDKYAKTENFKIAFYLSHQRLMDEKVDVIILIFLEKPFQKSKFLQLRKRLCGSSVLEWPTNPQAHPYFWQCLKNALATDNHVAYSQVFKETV
Procedure: A stable HEK-Blue-hTLR7 cell line was purchased from InvivoGen (Cat.#: hkb-htlr7, San Diego, Calif., USA). These cells were designed for studying the stimulation of human TLR7 by monitoring the activation of NF-κB. […] Therefore the reporter expression was regulated by the NF-κB promoter upon stimulation of human TLR7 for 20 hrs. The cell culture supernatant SEAP reporter activity was determined using QUANTI-Blue™ kit (Cat.#: rep-qb1, Invivogen, San Diego, Ca, USA) at a wavelength of 640 nm, a detection medium that turns purple or blue in the presence of alkaline phosphatase.
HEK-Blue-hTLR7 cells were incubated at a density of 250,000˜450,000 cells/mL in a volume of 180 μL in a 96-well plate in Dulbecco's Modified Eagle's medium (DMEM) containing 4.5 g/L glucose, 50 U/mL penicillin, […], […], 2 mM L-glutamine, 10% (V/V) heat-inactivated fetal bovine serum for 24 hrs. Then the HEK-Blue-hTLR-7 cells were incubated with addition of 20 μL test compound in a serial dilution in the presence of final DMSO at 1% and perform incubation under 37° C. in a CO2 incubator for 20 hrs. Then 20 μL of the supernatant from each well was incubated with 180 μL Quanti-blue substrate solution at 37° C. for 2 hrs and the absorbance was read at 620˜655 nm using a spectrophotometer. The signalling pathway that TLR7 activation leads to downstream NF-κB activation has been widely accepted, and therefore similar reporter assay was also widely used for evaluating TLR7 agonist (Tsuneyasu Kaisho and Takashi Tanaka, Trends in Immunology, Volume 29, Issue 7, July 2008, […]; Hiroaki Hemmi et al, Nature Immunology 3, 196-200 (2002)).

LYSA solubility = assay type: physicochemical; conditions: 0.05 M phosphate buffer, pH 6.5, aqueous buffer, thermodynamic from solid
Procedure: LYSA solubility assay is used to determine the aqueous solubility of a compound. Samples were prepared in duplicate from 10 mM DMSO stock solution. […] After one night, the solutions were filtered using a microtiter filter plate. Then the filtrate and its 1/10 dilution were analyzed by HPLC-UV.

[1] = Metabolic stability in human liver microsomes; conditions: 1 μM test compound, 0.5 mg/mL microsomal protein; 6.15 mL/min/kg is the limitation of assay sensitivity
Procedure: The human microsomal stability assay is used for early assessment of metabolic stability of a test compound in human liver microsomes.
Human liver microsomes (Cat. NO.: 452117, Corning, USA; Cat. NO.: H2610, Xenotech, USA) were preincubated with test compound for 10 minutes at 37° C. in 100 mM potassium phosphate buffer, pH 7.4. The reactions were initiated by adding NADPH regenerating system. The final incubation mixtures contained 1 μM test compound, 0.5 mg/mL liver microsomal protein, 1 mM MgCL2, 1 mM NADP, 1 unit/mL isocitric dehydrogenase and 6 mM isocitric acid in 100 mM potassium phosphate buffer, pH 7.4. After incubation times of 0, 3, 6, 9, 15 and 30 minutes at 37° C., 300 μL of cold ACN (including internal standard) was added to 100 μL incubation mixture to terminate the reaction. Following precipitation and centrifugation, the amount of compound remaining in the samples were determined by LC-MS/MS. Controls of no NADPH regenerating system at zero and 30 minutes were also prepared and analyzed.

[2] = read-out: HEK-Blue-hTLR7 (EC50 (μM))

SMILES | EC50 (human TLR7; [2]) [µM] | also measured
CCCS(=N)(=O)c1nc(N)c2[nH]c(=O)n(Cc3cccc(C(N)=O)c3)c2n1 (stereo not drawn) [Example 18, 3-[[6-amino-8-oxo-2-(propylsulfonimidoyl)-7H-purin-9-yl]methyl]benzamide] | 0.047 | solubility thermodynamic (LYSA solubility): 166 µg/mL (≈ 426 µM)
CCCS(=N)(=O)c1nc(N)c2[nH]c(=O)n(Cc3ccc(F)cc3F)c2n1 (stereo not drawn) [Example 31, 6-Amino-9-[(2,4-difluorophenyl)methyl]-2-(propylsulfonimidoyl)-7H-purin-8-one] | 0.04 | Human Liver Microsome Clearance [1]: <6.15 mL/min/kg
COCCS(=N)(=O)c1nc(N)c2[nH]c(=O)n(Cc3ccccc3)c2n1 (single isomer, unassigned) [Example 3-A, 6-Amino-9-benzyl-2-(2-methoxyethylsulfonimidoyl)-7H-purin-8-one] |  | Human Liver Microsome Clearance [1]: <6.15 mL/min/kg
CCCS(=N)(=O)c1nc(N)c2[nH]c(=O)n(Cc3ccc(S(C)(=O)=O)cc3)c2n1 (stereo not drawn) [Example 37, 6-Amino-9-[(4-methylsulfonylphenyl)methyl]-2-(propylsulfonimidoyl)-7H-purin-8-one] | 0.023 | Human Liver Microsome Clearance [1]: <6.15 mL/min/kg
CCCS(=N)(=O)c1nc(N)c2[nH]c(=O)n(Cc3cccc(C#N)c3)c2n1 (stereo not drawn) [Example 17, 3-[[6-Amino-8-oxo-2-(propylsulfonimidoyl)-7H-purin-9-yl]methyl]benzonitrile] |  | EC50 (human TLR7; HEK-Blue-hTLR7 (EC50 (μM))): 0.068 µM
CCCS(=N)(=O)c1nc(N)c2[nH]c(=O)n(Cc3ccc(C(F)(F)F)cc3)c2n1 (stereo not drawn) [Example 23, 6-Amino-2-(propylsulfonimidoyl)-9-[[4-(trifluoromethyl)phenyl]methyl]-7H-purin-8-one] | 0.016 | 
CCCS(=N)(=O)c1nc(N)c2[nH]c(=O)n(Cc3ccc(Cl)cc3)c2n1 (single isomer, unassigned) [Example 9-A, 6-Amino-9-[(4-chlorophenyl)methyl]-2-(propylsulfonimidoyl)-7H-purin-8-one] |  | EC50 (human TLR7; HEK-Blue-hTLR7 (EC50 (μM))): 0.014 µM
COCCS(=N)(=O)c1nc(N)c2[nH]c(=O)n(Cc3ccccc3)c2n1 (single isomer, unassigned) [Example 3-B, 6-Amino-9-benzyl-2-(2-methoxyethylsulfonimidoyl)-7H-purin-8-one] |  | EC50 (human TLR7; HEK-Blue-hTLR7 (EC50 (μM))): 0.55 µM
CCCS(=N)(=O)c1nc(N)c2[nH]c(=O)n(Cc3ccc(C)cc3)c2n1 (stereo not drawn) [Example 29, 6-Amino-2-(propylsulfonimidoyl)-9-(p-tolylmethyl)-7H-purin-8-one] | 0.027 | 
CCCS(=N)(=O)c1nc(N)c2[nH]c(=O)n(Cc3ccc(Cl)c(C)c3)c2n1 (stereo not drawn) [Example 28, 6-Amino-9-[(4-chloro-3-methyl-phenyl)methyl]-2-(propylsulfonimidoyl)-7H-purin-8-one] | 0.021 | 
CCCS(=N)(=O)c1nc(N)c2[nH]c(=O)n(Cc3ccc(C(=O)OC)cc3)c2n1 (stereo not drawn) [Example 38, Methyl 4-[[6-amino-8-oxo-2-(propylsulfonimidoyl)-7H-purin-9-yl]methyl]benzoate] | 0.075 | 
CCCS(=N)(=O)c1nc(N)c2[nH]c(=O)n(Cc3ccc(Cl)c(F)c3)c2n1 (stereo not drawn) [Example 30, 6-Amino-9-[(4-chloro-3-fluorophenyl)methyl]-2-(propylsulfonimidoyl)-7H-purin-8-one] | 0.018 | 
CCCS(=N)(=O)c1nc(N)c2[nH]c(=O)n(Cc3ccc(Cl)cc3)c2n1 (single isomer, unassigned) [Example 9-B, 6-Amino-9-[(4-chlorophenyl)methyl]-2-(propylsulfonimidoyl)-7H-purin-8-one] |  | EC50 (human TLR7; HEK-Blue-hTLR7 (EC50 (μM))): 0.011 µM
CCCS(=N)(=O)c1nc(N)c2[nH]c(=O)n(Cc3ccc(Cl)c(Cl)c3)c2n1 (stereo not drawn) [Example 26, 6-Amino-9-[(3,4-dichlorophenyl)methyl]-2-(propylsulfonimidoyl)-7H-purin-8-one] | 0.021 | 
CCCS(=N)(=O)c1nc(N)c2[nH]c(=O)n(Cc3ccc(C(=O)N4CCCCC4)cc3)c2n1 (stereo not drawn) [Example 41, 6-Amino-9-[[4-(piperidine-1-carbonyl)phenyl]methyl]-2-(propylsulfonimidoyl)-7H-purin-8-one] | 0.084 | 
CS(=N)(=O)c1nc(N)c2[nH]c(=O)n(Cc3ccccn3)c2n1 (stereo not drawn) [Example 19, 6-Amino-2-(methylsulfonimidoyl)-9-(2-pyridylmethyl)-7H-purin-8-one] | 0.67 | solubility thermodynamic (LYSA solubility): > 428 µg/mL
CS(=N)(=O)c1nc(N)c2[nH]c(=O)n(Cc3cccnc3)c2n1 (single isomer, unassigned) [Example 16-A, 6-Amino-2-(methylsulfonimidoyl)-9-(3-pyridylmethyl)-7H-purin-8-one] |  | EC50 (human TLR7; HEK-Blue-hTLR7 (EC50 (μM))): 0.76 µM
CCCS(=N)(=O)c1nc(N)c2[nH]c(=O)n(CC(C)C)c2n1 (stereo not drawn) [Example 21, 6-Amino-9-isobutyl-2-(propylsulfonimidoyl)-7H-purin-8-one] |  | solubility thermodynamic (LYSA solubility): 121 µg/mL (≈ 387 µM)
CCS(=N)(=O)c1nc(N)c2[nH]c(=O)n(Cc3ccc(C)cc3)c2n1 (stereo not drawn) [Example 71, 6-Amino-2-(ethylsulfonimidoyl)-9-(p-tolylmethyl)-7H-purin-8-one] | 0.098 | solubility thermodynamic (LYSA solubility): 12 µg/mL (≈ 34.6 µM)
CS(=N)(=O)c1nc(N)c2[nH]c(=O)n(Cc3cccnc3)c2n1 (single isomer, unassigned) [Example 16-B, 6-Amino-2-(methylsulfonimidoyl)-9-(3-pyridylmethyl)-7H-purin-8-one] |  | EC50 (human TLR7; HEK-Blue-hTLR7 (EC50 (μM))): 0.15 µM
CCCS(=N)(=O)c1nc(N)c2[nH]c(=O)n(Cc3cccc(Cl)c3)c2n1 (stereo not drawn) [Example 22, 6-Amino-9-[(3-chlorophenyl)methyl]-2-(propylsulfonimidoyl)-7H-purin-8-one] | 0.042 | 

Further lines, with some results ahead:

EC50 (human TLR7; [2]) [µM] | SMILES | also measured
0.022 | CCCS(=N)(=O)c1nc(N)c2[nH]c(=O)n(Cc3ccc(C)c(Cl)c3)c2n1 (stereo not drawn) [Example 36, 6-Amino-9-[(3-chloro-4-methyl-phenyl)methyl]-2-(propylsulfonimidoyl)-7H-purin-8-one] | 
0.12 | CCCS(=N)(=O)c1nc(N)c2[nH]c(=O)n(Cc3ccnc(C)c3)c2n1 (stereo not drawn) [Example 35, 6-Amino-9-[(2-methyl-4-pyridyl)methyl]-2-(propylsulfonimidoyl)-7H-purin-8-one] | Human Liver Microsome Clearance [1]: <6.15 mL/min/kg
0.0096 | CCCS(=N)(=O)c1nc(N)c2[nH]c(=O)n(Cc3ccc(Br)cc3)c2n1 (stereo not drawn) [Example 25, 6-Amino-9-[(4-bromophenyl)methyl]-2-(propylsulfonimidoyl)-7H-purin-8-one] | 
0.074 | COc1ccc(Cn2c(=O)[nH]c3c(N)nc(S(C)(=N)=O)nc32)cc1 (stereo not drawn) [Example 10, 6-Amino-9-[(4-methoxyphenyl)methyl]-2-(methylsulfonimidoyl)-7H-purin-8-one] | 
0.18 | N=S(=O)(CC(F)(F)F)c1nc(N)c2[nH]c(=O)n(Cc3ccccc3)c2n1 (stereo not drawn) [Example 7, 6-Amino-9-benzyl-2-(2,2,2-trifluoroethylsulfonimidoyl)-7H-purin-8-one] | solubility thermodynamic (LYSA solubility): 18 µg/mL (≈ 46.6 µM)
0.43 | COCCCS(=N)(=O)c1nc(N)c2[nH]c(=O)n(Cc3ccccc3)c2n1 (stereo not drawn) [Example 6, 6-Amino-9-benzyl-2-(3-methoxypropylsulfonimidoyl)-7H-purin-8-one] | solubility thermodynamic (LYSA solubility): 89 µg/mL (≈ 236 µM)
0.19 | CCCS(=N)(=O)c1nc(N)c2[nH]c(=O)n(Cc3ccccc3Cl)c2n1 (stereo not drawn) [Example 15, 6-Amino-9-[(2-chlorophenyl)methyl]-2-(propylsulfonimidoyl)-7H-purin-8-one] | 
0.09 | CCCS(=N)(=O)c1nc(N)c2[nH]c(=O)n(Cc3ccc(C(=O)N4CCCC4)cc3)c2n1 (stereo not drawn) [Example 42, 6-Amino-2-(propylsulfonimidoyl)-9-[[4-(pyrrolidine-1-carbonyl)phenyl]methyl]-7H-purin-8-one] | 
0.066 | COc1ccc(Cn2c(=O)[nH]c3c(N)nc(S(=N)(=O)CCCCl)nc32)cc1 (stereo not drawn) [Example 11, 6-Amino-2-(3-chloropropylsulfonimidoyl)-9-[(4-methoxyphenyl)methyl]-7H-purin-8-one] | solubility thermodynamic (LYSA solubility): 18 µg/mL (≈ 43.8 µM)
